The values below come from patent US20010033841A1, “Modulating platelet function” (priority 1998, published 2001).

Assay [1] deals with SDF-1 induced platelet aggregation. In words: Inhibition of SDF-1 induced platelet aggregation. It counts as cell-based, human. The procedure: (§1) Blood collection and platelet preparation. Human blood was collected from antecubital veins of healthy male or female, aspirin-free volunteers into syringes containing heparin (10 units/ml final concentration) for flow cytometry studies or sodium citrate (0.38% final concentration) for aggregation studies. Platelet rich plasma (PRP) was prepared by centrifugation of whole blood at 150 g for 15 minutes. Platelet poor plasma (PPP) was prepared by centrifugation of PRP at 1200 g for 15 minutes.
(§2) Aggregation studies. Experiments were performed using a Chrono-Log model 560 vs or 490-2D aggregometer (Havertown, Pa.). Aliquots of PRP (0.50 ml or 0.45 ml) with a platelet concentration of […] were incubated at 37° C. and stirred at 1000 rpm. Chemokines (PeproTech Inc., Rocky Hill, N.J., except SDF-1β, which was obtained from Genetics Institute, Boston, Mass.) were added and aggregation was measured as a percent change in optical density, with the instrument calibrated to yield 0% change in optical density for PRP and with the PPP 100% standard for change in optical density. Aggregation scale was set so that maximal aggregation gave 85-90% chart deflection. Inhibition experiments were done using CXCR4 mAb 12G5 (R&D, Minneapolis, Minn.), polyclonal anti-SDF-1 (R&D, Minneapolis, Minn.), pertussis toxin (Sigma, St. Louis, Mo.), wortmannin (Sigma), genestein (Sigma), and aspirin (Sigma). DMSO was used as vehicle for genestein and wortmannin and 1N NaOH was used as a vehicle for aspirin.

The test system of assay [2] is human platelets. Kind of assay: SDF-1 induced calcium flux in fura-2 loaded platelets. It counts as cell-based. The settings on record: SDF-1 50-100 nM, fura-2 340/380 ratio. As to the method:
Calcium flux. Fura-2 loaded platelets were prepared from acid citrate dextrose anti-coagulated blood (Rink et al., J. Physiol. 393: 513-24, 1987). PRP was collected by centrifugation for 15 minutes at 200 g and 100 μM aspirin was added. Platelets were then loaded with fura-2 by incubating PRP with 2 μM acetoxymethyl ester of fura-2 (fura-2 AM; Molecular Probes, Inc., Eugene, Oreg.) for 45 minutes at 37° C. in the dark. PRP was then centrifuged at 1500 g for 10 minutes and the pellet washed and resuspended in a buffer containing 145 mM NaCl, 4 mM KCl, 1 mM NaH2PO4, 0.8 mM MgCl2, 1.8 mM CaCl2, 25 mM Hepes and 22 mM glucose. Changes in cytosolic free calcium were determined after addition of SDF-1 (500 or 1000 ng/ml) by monitoring the excitation fluorescence intensity emitted at 510 nm in response to sequential excitation at 340 nm and 380 nm using a Delta RAM (Random Access Monochromator) fluorimeter (Photon Technology International, Monmouth Junction, N.J.). The data are presented as the relative ratio of fluorescence at 340/380 nm.
(In general: Calcium flux is commonly read through the fluorescence of an indicator in the cells.)

Assay [3] has as its system resting T-cells, monocytes, B cell precursors, natural killer cells and CD34+ stem cells. The settings on record: Bleul et al. 1996; Campbell et al. 1998; cited from earlier work.
Assay [4] concerns human platelets. In words: Chemokine-induced platelet aggregation in platelet rich plasma (aggregometer). It counts as cell-based. As to the method:
as §1, §2

For `O=c1c(-c2ccc(O)cc2)coc2cc(O)cc(O)c12` [Genestein, genestein], in assay [1] (genestein 200 μM, 5 minutes preincubation, FIG. 5B), the “effect on SDF-1 induced platelet aggregation” value (“effect” for short) is reported as “decreased SDF-1 platelet aggregation”.

Regarding “SDF-1: chemokine stromal derived factor-1; α or β form not specified at the place”, the “increase in cytosolic calcium” value in the assay on human platelets [2] is “induced an increase in cytosolic calcium”. The “concentration giving maximal chemotaxis” value in assay [3] was 10 to 100 nM. In the assay on human platelets [4] (40 nM chemokine, FIG. 1A), the “induction of platelet aggregation” value is “induced platelet aggregation”. For the same compound, in the assay with human platelets [4] (out of twelve donors tested), the “donors responding with only primary aggregation” value is listed as “two”; the “donors with full primary and secondary aggregation response” value is recorded as “ten”.

As for `CC(=O)Oc1ccccc1C(=O)O` [Aspirin, aspirin], the “effect” value in assay [1] (aspirin 1 mM, FIG. 5A) is reported as “inhibited SDF-1 induced secondary aggregation”.

Regarding SDF-1α, in the assay with human platelets [4] (FIGS. 1B and 1C), the “concentration at which a primary and secondary response was observed” value was in the range of 12.5 to 25 nM; the “concentration that only induced the primary phase of aggregation” value is reported as 6.2 nM.

pertussis toxin: the “effect” value in assay [1] (pertussis toxin 1.7 nM, 30 minute preincubation, SDF-1α 80 ng/ml, FIG. 4B) is reported as “blocked”.
